Values after ≈ are worked out from the molar mass of the structure shown.
What was measured:
collagenase = target: T1, collagenase; assay: modified ninhydrin assay, absorbance at […] nm; format: biochemical; settings: collagen substrate; 5 h at 37°C; calcium chloride; positive control
T1 construct: gene colG

elastase = target: T2, elastase; assay: absorbance at […] nm, nitroanilide release; format: biochemical; settings: N-(methoxysuccinyl)-Ala-Ala-Pro-Val-4-nitroanilide substrate; 0.2 M Tris-HCl; 30 min; positive control
T2 construct: gene CELA1

## O=C(O[C@@H]1Cc2c(O)cc(O)cc2O[C@@H]1c1cc(O)c(O)c(O)c1)c1cc(O)c(O)c(O)c1 [Epigallocatechin gallate]
collagenase
  IC50: 40 µg/mL (≈ 87.3 µM)
elastase
  IC50: 2620 µg/mL (≈ 5720 µM)
